Reference: US10718028B2, “Fluorescent probes for abasic site detection” (CASE WESTERN RESERVE UIVERSITY, priority 2015, dated 2020)

Legend:
[1] = system: AP DNA; assay: SSB activity assay, dose-response of AP site binding probes; format: biochemical; settings: 5 pmol AP DNA, FIG. 1
Description: FIG. 1 illustrates SSB activity assay is used to compare the dose-response of AP site binding probes in 5 pmol of AP DNA. Mean and standard deviation of triplicate samples are shown for each concentration.
The single strand break (SSB) assay was proposed as a quick, facile tool to screen AP site binding probes. Therefore, the assay was performed on novel AP site binding probes described above and the commercially available AP site binding probe, F422. […] The reduced response of F422 and DansylMX may be due in part to the compounds being fairly electron rich near the aminooxy binding moiety. This could lead to a Coulombic repulsion with the DNA phosphate backbone.
SSB activity assays were performed on a 40-mer duplex DNA synthesized by IDT with the sequence:
SSB Activity Assay Control Reactions

[2] = system: AP sites in calf thymus AP DNA; assay: Genomic DNA time course of Cy7MX binding; settings: heat/acid treated DNA, 37° C.
Description: Calf thymus DNA was purchased from Sigma and was reconstituted overnight at 4° C. in either H2O or 500 mM MX (to eliminate basal AP sites) with gentle shaking (1.5 mL water or solution per 5 mg DNA). For samples reconstituted in MX solution, an ethanol precipitation was performed twice before heat and acid treatment (vide infra) then reconstituted in water. The DNA-water solution was aliquoted to 1.5 mL Eppendorf tubes (360 μL) and 10× Citrate buffer (1M NaCl, 100 μM monosodium phosphate, 100 μM monosodium citrate, pH 5.0) was added to a final concentration of 1×. For t=0 min samples, ice-cold 100% EtOH (1.0 mL) was added immediately and the Eppendorf tubes stored at −20° C. Other samples were placed in a 70° C. heating block for 15-90 minutes in 15-minute increments. Samples were removed from heat, precipitated in ice-cold 100% EtOH (1.0 mL), and then chilled at −20° C. for at least 20 minutes. Samples were centrifuged at 12,000×G for 10 min at 4° C. The supernatant was discarded. The process was repeated once beginning with the addition of EtOH (1.0 mL). The DNA pellet was dissolved in 700 μL H2O or TE buffer. […]
A 100 mM stock solution of Cy7MX in DMSO was diluted to 25 μM in H2O. […] Aliquots (125 μL) of the samples were added to a black, clear-bottom 96 well plate (Corning) and analyzed with 750 nm excitation and 800 nm emission. Fluorescence was adjusted to DNA concentration.

[3] = system: DLD1 WT cells; assay: MMS treatment, isolation, and Cy7MX analysis of DLD1 DNA; format: cell-based; settings: 3 h MMS exposure, 1 h Cy7MX
Description: DLD1 shControl (WT) cells at a density of 3 million cells per dish were plated in Falcon brand 100×20 mm cell culture dishes in 10 mL medium (DMEM supplemented with 10% heat inactivated FBS, penicillin/streptomycin, and nonessential amino acids) and incubated 16 h at 37° C. and 5% CO2 to ensure adhesion. Solutions of MMS were prepared in serum free DMEM medium at concentrations of 0.05, 0.25, 1, 4, and 10 mM. Medium was removed from the cells and replaced with the MMS or a serum free medium vehicle. Three plates were prepared per treatment group. Cells were incubated at 37° C. and 5% CO2 with continuous MMS exposure for 3 h. At the time points, cells were collected and DNA isolated as described above (Treatment of DLD1 cells with FUDR).
Pure DNA pellets were suspended in 190 μL water. A solution of Cy7MX (10 μL, final=25 μM) was added to each sample, keeping the stock solution and all treated samples vigorously in the dark until the final analysis. Samples were incubated with Cy7MX for 1 h at 37° C. in the dark. After incubation, DNA was purified and analyzed as described above.
Methyl methanesulfonate (MMS) is a methylating agent used to induce AP sites in cells. An MMS dose-response in DLD1 WT cells was performed for a 3 h treatment time. […] Fluorescence was measured following ethanol precipitation purification.

Structure (SMILES): CCCN1/C(=C/C=C2\CCCC(/C=C/C3=[N+](CCC)c4ccccc4C3(C)C)=C2Oc2ccc(CC(=O)NCCCON)cc2)C(C)(C)c2ccccc21 [Cy7MX, 2-((E)-2-((E)-2-(4-(2-((3-(aminooxy)propyl)amino)-2-oxoethyl)phenoxy)-3-((E)-2-(3,3-dimethyl-1-propylindolin-2-ylidene)ethylidene)cyclohex-1-en-1-yl)vinyl)-3,3-dimethyl-1-propyl-3H-indol-1-ium 2,2,2-trifluoroacetate]
- dose-response and overall efficacy in SSB assay [1]: acceptable dose-response and overall efficacy
- time to complete reaction [2]: approximately 10 min
- detection of AP sites in DNA of MMS treated cells [3]: sensitive to the quantity of AP sites induced by mM concentrations of MMS
